Data: publication PMC7332792 (Acta Pharmaceutica Sinica. B, 2020)
Bridge positions count the residues as written; N and C are the ends. Ends that are not written are not given here.

Legend:
human LAG-3 protein = biological target: T1, human LAG-3 protein (human, UniProt P18627, labeled with Red-NHS647 dye (in the MST assay)); assay: MST
T1 sequence: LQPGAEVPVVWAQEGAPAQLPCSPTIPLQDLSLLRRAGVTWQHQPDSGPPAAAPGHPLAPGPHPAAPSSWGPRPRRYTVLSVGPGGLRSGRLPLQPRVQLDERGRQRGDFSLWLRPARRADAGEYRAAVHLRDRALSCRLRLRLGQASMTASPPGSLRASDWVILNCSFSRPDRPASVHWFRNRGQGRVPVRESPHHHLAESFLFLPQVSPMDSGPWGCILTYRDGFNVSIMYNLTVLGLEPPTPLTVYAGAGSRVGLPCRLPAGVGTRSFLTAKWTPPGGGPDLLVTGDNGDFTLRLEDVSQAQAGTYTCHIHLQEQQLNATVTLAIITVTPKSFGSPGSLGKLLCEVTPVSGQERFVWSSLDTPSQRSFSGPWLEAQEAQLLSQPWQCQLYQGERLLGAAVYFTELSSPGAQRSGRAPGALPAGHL

With CSCC[C@@H]1NC(=O)[C@@H]2CCCN2C(=O)[C@H](C(C)C)NC(=O)[C@@H](N)CSSC[C@@H](C(=O)O)NC(=O)[C@H](C)NC(=O)[C@H](CCCNC(=N)N)NC(=O)[C@H](Cc2ccc(O)cc2)NC(=O)[C@H]([C@@H](C)O)NC1=O [C25] the “immune response (immunogenicity) in mice” value (mice with or without CT26 xenograft) was “did not cause significant immune response in mice” and the “IgG levels in the blood” value (naïve mice and CT26 tumor bearing mice after 14 days of C25 treatment, ELISA, versus control, n = 5) was “not significantly different from those in the control group”.

With CNWMINKEC (disulfide 1-9) [cyclic peptide C19] the Kd (human LAG-3 protein) was 5.05 µM.

With CNMHTPMVC (disulfide 1-9) [cyclic peptide C17] the Kd (human LAG-3 protein) was 1.83 µM.
